These results are taken from patent publication EP4748837A1, “AROMATIC AMIDE DERIVATIVE, AND PREPARATION METHOD THEREFOR AND USE THEREOF” (Zhejiang Hisun Pharmaceutical Co., Ltd., priority 2023, dated 2025).

Data set [1] relates to OVCAR-3 human ovarian adenocarcinoma tumor mass. The data set is described as follows: Pharmacodynamic testing in subcutaneous OVCAR-3 xenograft model. Type of data set: in vivo, BALB/c nude mice. Conditions: 35 days after administration, 8 mg/kg po QD, BALB/c nude mice. How it is done: Anti-tumor effects and Safeties of the Compounds 47 and 53 of the present invention in a BALB/c nude mouse animal model subjected to subcutaneous xenotransplantation of OVCAR-3 human ovarian adenocarcinoma tumor mass were evaluated.
BALB/c; nude mice, female, 6-7 weeks old, purchased from Jiangsu Gempharmatech Biotechnology Co., Ltd.
Mice in a solvent control group were given DMA: CrEL: 5%GS=10: 10: 80 (v: v: v). AMG650: a proper amount of AMG-650 was weigned, proper amounts of DMA, CrEL and 5% GS were added in sequence, and the mixture was well mixed by ultrasonic vortex to prepare 0.8 mg/mL drug preparations respectively, wherein DMA: CrEL : 5% GS=10: 10: 80 (v: v: v).
Compound 47: a proper amount of Compound 47 was added with proper amounts of DMA, CrEL and 5% GS in sequence, and evenly mixed by ultrasonic vortex to prepare 0.8 mg/mL drug preparations respectively, wherein DMA, CrEL and 5% GS=10: 10: 80 (v: v: v).
Compound 53: a proper amount of Compound 53 was weighed, proper amounts of DMA, CrEL and 5% GS were added in sequence, and the mixture was well mixed by ultrasonic vortex to prepare 0.8 mg/mL drug preparations respectively, wherein DMA: CrEL : 5% GS=10: 10: 80 (v: v: v).
An appropriate OVCAR-3 tumor-bearing animal was selected, and a 1 mm×1 mm×1 mm OVCAR-3 tumor mass was acquired aseptically and placed into normal saline for later use, which was used for subcutaneous tumor inoculation in a right side of back of the BALB/c nude mice.
About 1 mm×1 mm×1 mm OVCAR-3 tumor mass was subcutaneously inoculated in the right side of back of the female BALB/c nude mice. When an average tumor volume reached about 100-250 mm^3, the mice were randomly grouped based on tumor size, with 6 mice in each group.
Animals in each group were given the test compound once per day according to an animal weight at a fixed time every day by oral administration (po), the animals started to be administered with the test compound for the first time on the day of grouping for 35 consecutive days, and the animal weight was recorded every day.
The 1st group (G1) was a solvent control group; and
The 2nd-4th groups […] were orally administered with AMG-650, Compound 47 and Compound 53 at an administration dosage of 8 mg/kg once per day (QD).

In another data set the test system is OVCAR-3 cells. The data set is described as follows: Inhibition of OVCAR-3 cell proliferation (CellTiter-Glo cell viability). In kind it is cell-based. Conditions: Homo sapiens; OVCAR-3 cells (TP53 R248Q mutation), 72 hours culture with compound; read-out: IC50. In outline: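 OVCAR-3 cells (TP53 R248Q) in RPMI 1640 with 10% FBS were seeded at 1000 cells/well, grown overnight, then exposed to compound (final 1000 nM–0.015 nM) for 72 h at 37°C, 5% CO2. Viability was read by CellTiter-Glo luminescence. IC50 came from nonlinear regression of inhibition relative to 0.3% DMSO control.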
In general terms: In ATP-based viability assays light output follows the ATP content of the culture.

Another data set relates to HT-29 cells. The data set is described as follows: Inhibition of HT-29 cell proliferation (CellTiter-Glo cell viability). In kind it is cell-based. Conditions: Homo sapiens; HT-29 cells (TP53 R273H mutation), 120 hours culture with compound; read-out: IC50. Put shortly: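 HT-29 cells (TP53 R273H) in McCOY's 5A with 10% FBS, seeded 1000 cells/well overnight, then exposed to compound at 1000 nM–0.015 nM final for 120 hours at 37°C. Viability by CellTiter-Glo luminescence versus 0.3% DMSO control; IC50 by nonlinear regression of log concentration–inhibition.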

Data set [2] is described as follows: Pharmacokinetic testing in mice after intragastric administration. Type of data set: in vivo. Particulars: male, mouse, ICR mice, oral administration 10 mg/kg, plasma. On the procedure: ICR mice were taken as test animals, and intragastrically administered with a control compound AMG650 and compounds 47 and 53 of the present invention, and then drug concentrations in plasma at different moments were determined by an LC/MS/MS method, so as to study pharmacokinetic characteristics of the compounds of the present invention in the mice.
Control compound AMG650, and Compounds 47 and 53.
ICR mice, male, 20-22 g, purchased from Vital River Laboratory Animal Technology Co., Ltd.
A proper amount of to-be-tested compound was weighed, proper amounts of DMA, 30% HS-15 and Saline were added in sequence, and the mixture was well mixed by ultrasonic vortex to prepare 1 mg/mL drug preparations respectively, wherein […]: 30% HS-15: Saline=5: 5: 90 (v: v: v).
ICR mice in each to-be-tested compound injection group (9 mice in each group) were fasted overnight and then intragastrically administered with the compound (PO, an administration dosage of the compound was 10 mg/kg and an administration volume of the compound was 10 mL/kg), and were fed 4 hours after administration.
0.25 hours, 0.5 hours, 1 hour, 2 hours, 4 hours, 6 hours, 8 hours and 24 hours before and after administration, about […] of blood was collected through an orbit, and a complete blood sample was placed in an EDTA-K2-containing anticoagulation tube. The collected blood samples were placed on ice, and plasma was centrifugally separated (centrifugation conditions: 1500 g, 10 minutes). The collected plasma was stored at -40°C - -20°C before analysis.
A content of the to-be-tested compound in the plasma of the mice after intragastric administration was determined by LC-MS/MS.

For another data set, the target named is T1, recombinant human KIF18A (Homo sapiens, UniProt Q8NI77).
T1 construct: purchased GenScript
The data set is described as follows: Inhibition of KIF18A enzyme activity (ADP-Glo assay). In kind it is biochemical. Particulars: recombinant human KIF18A 100 nM, ATP 60 µM, tubulin, paclitaxel; read-out: IC50. How it is done: Inhibition degrees of the compounds of the present invention on recombinant human KIF18A enzyme activity in vitro were determined by the following method. An ADP-Glo™ Kinase Assay kit (article number V9102) from Promega Company was used in this method. Detailed experimental operation referred to the instruction of the kit.
An experimental process was briefly described as follows: a test compound was dissolved in DMSO first to prepare a stock solution, then the stock solution was gradiently diluted with a reaction buffer A ([…], 0.01% Pluronic F-68), and a final concentration of the test compound in the reaction system was in a range of 10000 nM-0.15 nM; and a KIF18A protein and ATP working solution was prepared by using a reaction buffer B (15 mM Tris, pH 7.5, 10 mM MgCl2, 0.01% Pluronic F-68, 37.5 µg/ml tubulin, 1.25 µM paclitaxel). The reaction was carried out in a 384-well microplate. The test compound and the recombinant human KIF18A protein (final concentration of 100 nM, entrusted to GenScript for expression) were added into the wells and incubated at room temperature for 20 minutes, and subsequently, an ATP solution (component V915A from the ADP-Glo™ Kinase Assay kit, final concentration of 60 µM) was added to the reaction solution and the system was incubated at room temperature for 20 minutes. Subsequently, 5 µL of ADP-Glo Reagent was added to the reaction systemand the system was incubated at room temperature for 50 minutes. Then, 10 µL of Kinase Detection Reagent was added to the reaction system and the system was incubated at room temperature for 30 minutes. After the incubation was ended, a chemiluminiscence intensity value of each well was determined by a microplate reader in a Luminescence mode.

T1 sequence (Q8NI77 whole entry): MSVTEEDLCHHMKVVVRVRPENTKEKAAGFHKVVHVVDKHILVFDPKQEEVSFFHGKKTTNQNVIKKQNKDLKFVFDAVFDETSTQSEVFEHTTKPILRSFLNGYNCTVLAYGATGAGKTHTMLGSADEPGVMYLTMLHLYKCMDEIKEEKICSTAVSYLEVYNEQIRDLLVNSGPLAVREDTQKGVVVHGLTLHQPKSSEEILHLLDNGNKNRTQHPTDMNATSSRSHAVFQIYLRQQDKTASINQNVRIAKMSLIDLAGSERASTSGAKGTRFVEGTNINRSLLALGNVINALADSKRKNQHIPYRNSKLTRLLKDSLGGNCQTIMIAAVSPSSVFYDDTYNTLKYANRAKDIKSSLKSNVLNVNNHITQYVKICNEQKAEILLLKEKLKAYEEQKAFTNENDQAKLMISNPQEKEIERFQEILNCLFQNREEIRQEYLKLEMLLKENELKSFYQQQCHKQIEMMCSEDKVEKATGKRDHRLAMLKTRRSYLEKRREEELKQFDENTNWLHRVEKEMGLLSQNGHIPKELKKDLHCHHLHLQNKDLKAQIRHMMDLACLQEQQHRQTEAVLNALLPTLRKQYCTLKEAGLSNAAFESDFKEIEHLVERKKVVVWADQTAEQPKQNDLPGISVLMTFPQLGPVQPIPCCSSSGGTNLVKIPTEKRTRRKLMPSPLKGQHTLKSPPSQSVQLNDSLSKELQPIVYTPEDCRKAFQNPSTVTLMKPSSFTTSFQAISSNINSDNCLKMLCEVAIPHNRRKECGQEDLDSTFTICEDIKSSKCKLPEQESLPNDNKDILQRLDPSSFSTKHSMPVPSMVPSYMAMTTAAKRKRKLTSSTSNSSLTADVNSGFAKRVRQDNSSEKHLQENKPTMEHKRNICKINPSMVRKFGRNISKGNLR
T1 sequence (P68363 whole entry partner): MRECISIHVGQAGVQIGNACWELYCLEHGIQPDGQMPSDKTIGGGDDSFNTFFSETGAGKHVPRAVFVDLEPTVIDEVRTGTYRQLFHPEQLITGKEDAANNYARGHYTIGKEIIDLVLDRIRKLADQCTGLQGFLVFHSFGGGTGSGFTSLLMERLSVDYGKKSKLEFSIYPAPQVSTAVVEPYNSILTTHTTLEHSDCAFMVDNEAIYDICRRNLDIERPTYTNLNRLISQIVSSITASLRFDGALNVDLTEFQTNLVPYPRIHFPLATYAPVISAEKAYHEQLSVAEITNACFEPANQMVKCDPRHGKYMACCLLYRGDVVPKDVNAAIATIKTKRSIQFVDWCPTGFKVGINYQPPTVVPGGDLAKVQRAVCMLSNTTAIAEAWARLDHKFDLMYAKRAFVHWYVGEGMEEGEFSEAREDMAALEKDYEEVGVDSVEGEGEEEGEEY
T1 sequence (Q9BVA1 whole entry partner): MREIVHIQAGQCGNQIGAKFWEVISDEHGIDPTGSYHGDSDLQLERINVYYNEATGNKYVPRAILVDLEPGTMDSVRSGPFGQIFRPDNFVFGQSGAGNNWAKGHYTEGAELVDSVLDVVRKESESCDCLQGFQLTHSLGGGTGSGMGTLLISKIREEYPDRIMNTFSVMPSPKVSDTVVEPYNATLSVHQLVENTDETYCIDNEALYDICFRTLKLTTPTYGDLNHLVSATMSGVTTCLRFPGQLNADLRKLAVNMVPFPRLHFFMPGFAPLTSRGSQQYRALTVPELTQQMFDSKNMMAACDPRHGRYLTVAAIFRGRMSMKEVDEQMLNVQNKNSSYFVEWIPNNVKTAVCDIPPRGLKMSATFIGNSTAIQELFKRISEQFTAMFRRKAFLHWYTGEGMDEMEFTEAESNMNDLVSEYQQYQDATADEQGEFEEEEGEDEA

`Cc1cc(NC(=O)c2ccc(NS(=O)(=O)CCO)cc2N2CCC3(CC2)CC3)nc(N2CCC(F)(F)CC2)n1` [AMG 650, reference compound]: the TGI% in data set [1] came to 68.1%. The “Tumor volume (x±S)” value in data set [1] (mean value ± standard error, in mm³ (unit assumed)) was found to be 313±76. Further, the IC50 was 64.5 nM in the data set with OVCAR-3 cells and 61.7 nM in the data set on HT-29 cells. For the same compound, in data set [2] (read-out: Area under the curve AUC0-∞), the AUC(0-inf) was 52500 ng·h/mL. In data set [2] (read-out: Half-life period T1/2 (converted)), the half-life was 9.64 h. In addition, in data set [2] (read-out: Plasma concentration Cmax), the Cmax was 3050 ng/mL.

As for `[2H]C([2H])([2H])Oc1ccc(NC(=O)c2ccc(NS(=O)(=O)CCO)cc2N2CCC3(CC2)CC3)cc1N1CCC(F)(F)CC1` [Example 58, N-(3-(4,4-difluoropiperidin-1-yl)-4-(methoxy-d3)phenyl)-4-( (2-hydroxyethyl)sulfonamido) -2-(6-azaspiro[2.5]octan-6-yl) benzamide], the values for the IC50 at recombinant human KIF18A, in the data set on OVCAR-3 cells and in the data set on HT-29 cells were 91.7 nM, 2.2 nM and 1.5 nM, respectively.

For the compound `CCS(=O)(=O)Nc1ccc(C(=O)Nc2ccc(-c3ncn(C)n3)c(N3CC(F)(F)C3)c2)c(N2CCC3(CC2)CC3)c1` [Example 46, N-(3-(3,3-difluoroazetidin-1-y 1)-4-(1-methyl-1H-l,2,4-triazo 1-3-yl)phenyl)-4-(ethylsulfonamido)-2-(6-azaspiro[2.5]octan-6-yl)benzamide], the figures for the IC50 at recombinant human KIF18A, with OVCAR-3 cells and in the data set with HT-29 cells were 148 nM, 3.7 nM and 0.15 nM, respectively.

For the compound `CCS(=O)(=O)Nc1ccc(C(=O)Nc2ccc(-c3ccnnc3)c(N3CCC(F)(F)CC3)c2)c(N2CCC3(CC2)CC3)c1` [Example 13, N-(3-(4,4-difluoropiperidin-1-yl)-4-(pyridazin-4-yl)phenyl)-4-(ethylsulfonamido)-2-(6-azaspiro[2.5]octan-6-yl)benzamide], the IC50 was determined as 82.9 nM at recombinant human KIF18A, 5.9 nM in the data set on OVCAR-3 cells and 11.5 nM with HT-29 cells.

Take `O=C(Nc1ccc(-c2nnco2)c(N2CCC(F)(F)CC2)c1)c1ccc(NS(=O)(=O)C2CC2)cc1N1CCC2(CC1)CC2` [Example 41, 4-(cyclopropanesulfonamido)-N-(3-(4,4-difluoropiperidin-1-yl)-4-(1,3,4-oxadiazol-2-yl)phenyl)-2-(6-azaspiro[2.5]octan-6-yl)benzamide]: the IC50 on recombinant human KIF18A worked out at 155 nM; in the data set on OVCAR-3 cells it was 6.2 nM; in the data set on HT-29 cells it was 1.8 nM.

As for `CCS(=O)(=O)Nc1ccc(C(=O)Nc2ccc(-c3ncn(C)n3)c(N3CCC(F)(F)CC3)c2)c(N2CCC3(CC2)CC3)c1` [Example 39, N-(3-(4,4-difluoropiperidin-1-yl)-4-(1-methyl-1H-1,2,4-triazol-3-yl)phenyl)-4-(ethylsulfon amido)-2-(6-azaspiro[2.5]octan-6-yl)benzamide], the IC50 on recombinant human KIF18A stood at 122 nM; in the data set with OVCAR-3 cells it was 3.8 nM; in the data set with HT-29 cells, 0.26 nM.

Broadly, the IC50 is the point on the concentration scale where inhibition reaches its midpoint.
